Test system: CD8+ T cells of HLA-A24 healthy donors
Test: Primary CTL induction with peptide-pulsed autologous DCs, cytotoxicity tested on peptide-pulsed TISI
Format: cell-based, human
Conditions: data not shown

Q: With `CC(C)C[C@H](NC(=O)[C@H](CC(C)C)NC(=O)[C@H](C)NC(=O)[C@H](CC(C)C)NC(=O)[C@H](CC(C)C)NC(=O)[C@H](CC(C)C)NC(=O)CNC(=O)[C@H](Cc1c[nH]c2ccccc12)NC(=O)[C@@H](N)CCCNC(=N)N)C(=O)O` [HE1] as the molecule, how does the “CTL induction activity (cytotoxicity of peptide-stimulated CTLs against the peptide-pulsed TISI)” value read?
A: Its value is “showed the cytotoxicity against the peptide- pulsed TISI”.

Source: publication PMC2363616, “Mapping the HLA-A24-restricted T-cell epitope peptide from a tumour-associated antigen HER2 / neu: possible immunotherapy for colorectal carcinomas” (British Journal of Cancer, 2001)
